Converted amounts (≈) assume the structure as drawn. “Also recorded” adds a separate entry of the source.
What was measured:
[1] = system: Bacillus cereus ATCC 10876; assay: Broth microdilution antimicrobial activity; assay type: cell-based; conditions: for MBC / MIC: ATCC10876
Description: (§1) Reference strains of microorganisms that came from American Type Culture Collection (ATCC) (Manassas, VA, USA) were used for this study. The representative Gram-positive bacteria were as follows: Staphylococcus aureus ATCC 25923, Staphylococcus aureus ATCC 29213, Staphylococcus aureus ATCC 43300, Staphylococcus epidermidis ATCC 12228, Enterococcus faecalis ATCC 29212, Micrococcus luteus ATCC 10240, Bacillus subtilis ATCC 6633 and Bacillus cereus ATCC 10876. While, those of Gram-negative bacteria were as follows: Bordetella bronchiseptica ATCC 4617, Escherichia coli ATCC 25922, Klebsiella pneumoniae ATCC 13883, Proteus mirabilis ATCC 12453, Salmonella Typhimurium ATCC 14028 and Pseudomonas aeruginosa ATCC 9027. Moreover, the following fungi belonging to yeasts were used: Candida albicans ATCC 10231, Candida albicans ATCC 2091, Candida parapsilosis ATCC 22019, Candida glabrata ATCC 90030 and Candida krusei ATCC 14243.
(§2) The new compounds WZ1–WZ4 were assayed for both antibacterial and antifungal activity using the broth microdilution method in accordance with the European Committee on Antimicrobial Susceptibility Testing (EUCAST) and Clinical and Laboratory Standards Institute (CLSI) guidelines. The microorganisms were grown at 35 °C for 18–24 h on appropriate media (nutrient agar and Sabouraud for bacteria and fungi, respectively) (BioMaxima S.A., Lublin, Poland). Next, microbial suspensions with an optical density of 0.5 McFarland standard scale (in sterile 0.85% NaCl) were prepared. In turn, the tested compounds were initially diluted at 50 mg/mL in dimethyl sulfoxide (DMSO) and the broth microdilution method was used to assess their minimum inhibitory concentrations (MICs). For these studies, selective broth Mueller-Hinton (MH) (BioMaxima S.A., Lublin, Poland) and RPMI (Roswell Park Memorial Institute) 1640 with MOPS (3-(N-Morpholino)propanesulfonic acid) (Sigma-Aldrich Chemicals, St. Louis, MO, USA) were used for bacteria and fungi, respectively. The antimicrobial effect of compounds WZ1–WZ4 was determined in the concentration range from 2000 to 0.98 µg/mL.
(§3) Then, the microbial suspensions were introduced into each well of the microplate and incubated for 18–24 h at 35 °C. […] The reference drugs ciprofloxacin or vancomycin (against bacteria) and nystatin (against fungi) (Sigma-Aldrich Chemicals, St. Louis, MO, USA) were also used. Next, the values of the minimum bactericidal concentration (MBC) and minimum fungicidal concentration (MFC) of WZ1–WZ4 were assessed. For this purpose, the cultures from each MIC determination well were transferred to a suitable solid medium and incubated under appropriate conditions. The lowest concentrations of compounds without microbial growth were read as MBC or MFC. The studies were performed in triplicate and representative data were gathered.
(§4) In turn, the MBC/MIC or MFC/MIC ratios were used to assess bactericidal/fungicidal (MBC/MIC or MFC/MIC ≤ 4) and bacteriostatic/fungistatic (MBC/MIC or MFC/MIC > 4) effect of these compounds [93].

[2] = system: Bacillus subtilis ATCC 6633; assay: Broth microdilution antimicrobial activity; assay type: cell-based; conditions: for MBC / MIC: ATCC6633
Description: as §1, §2, §3, §4

[3] = system: Bordetella bronchiseptica ATCC 4617; assay: Broth microdilution antimicrobial activity; assay type: cell-based; conditions: for MBC / MIC: ATCC4617
Description: as §1, §2, §3, §4

[4] = system: Candida albicans ATCC 10231; assay: Broth microdilution antimicrobial activity; assay type: cell-based; conditions: for MFC: ATCC10231, read-out: MFC; for MIC: ATCC10231, read-out: MIC
Description: as §1, §2, §3, §4

[5] = system: Candida albicans ATCC 2091; assay: Broth microdilution antimicrobial activity; assay type: cell-based; conditions: for MFC: ATCC2091, read-out: MFC; for MIC: ATCC2091, read-out: MIC
Description: as §1, §2, §3, §4

[6] = system: Candida glabrata ATCC 90030; assay: Broth microdilution antimicrobial activity; assay type: cell-based; conditions: for MFC / MIC: Nakaseomyces glabratus; for MFC: ATCC90030, read-out: MFC; for MIC: ATCC90030, read-out: MIC
Description: as §1, §2, §3, §4

[7] = system: Candida parapsilosis ATCC 22019; assay: Broth microdilution antimicrobial activity; assay type: cell-based; conditions: for MFC / MIC: Lodderomyces parapsilosis; for MFC: ATCC22019, read-out: MFC; for MIC: ATCC22019, read-out: MIC
Description: as §1, §2, §3, §4

[8] = system: Proteus mirabilis ATCC 12453; assay: Broth microdilution antimicrobial activity; assay type: cell-based; conditions: for MBC / MIC: ATCC12453
Description: as §1, §2, §3, §4

[9] = system: Pseudomonas aeruginosa ATCC 9027; assay: Broth microdilution antimicrobial activity; assay type: cell-based; conditions: for MBC / MIC: ATCC9027
Description: as §1, §2, §3, §4

[10] = system: Salmonella Typhimurium ATCC 14028; assay: Broth microdilution antimicrobial activity; assay type: cell-based; conditions: for MBC / MIC: Salmonella enterica
Description: as §1, §2, §3, §4

[11] = system: Staphylococcus aureus ATCC 25923; assay: Broth microdilution antimicrobial activity; assay type: cell-based; conditions: for MBC / MIC: ATCC25923
Description: as §1, §2, §3, §4

[12] = system: Staphylococcus aureus ATCC 29213; assay: Broth microdilution antimicrobial activity; assay type: cell-based; conditions: for MBC / MIC: ATCC29213; for MBC / MIC / MBC/MIC: Staphylococcus aureus ATCC 29213
Description: as §1, §2, §3, §4

[13] = system: Staphylococcus aureus ATCC 43300; assay: Broth microdilution antimicrobial activity; assay type: cell-based; conditions: for MBC / MIC: ATCC43300; for MBC / MIC / MBC/MIC: Staphylococcus aureus ATCC 43300
Description: as §1, §2, §3, §4

[14] = system: Staphylococcus epidermidis ATCC 12228; assay: Broth microdilution antimicrobial activity; assay type: cell-based; conditions: for MBC / MIC: ATCC12228
Description: as §1, §2, §3, §4

ALDH1A1 = ALDH1A1 concentration by ELISA in Du145 cells; assay type: cell-based, human
Experimental: The effect of compounds WZ1–WZ4 on ALDHA1 levels was investigated (Figure 10). The Du145, HepG2 and 769-P cell lines were treated with the calculated IC25 values for each compound.
Selected cell lines, viz HepG2, Du145 and 769-P, were seeded into 6-well plates and incubated for 24 h after seeding with compounds at a concentration equal to IC25. After a further 24 h or 48 h, cells were detached with trypsin and centrifuged. The resulting cell pellet was resuspended in 0.5 mL PBS. The samples were then sonicated, and protein was determined using the Bradford method (Bio-rad; Hercules, CA, USA). Samples were equilibrated to 10 mg/mL of protein, and ALDH1A1 was determined in the samples prepared in this way. ALDH1A1 determination was performed using an ELISA (SEE824Hu; Cloud Clone Corp., Katy, TX, USA), according to the manufacturer’s protocol.

## O=S(=O)(NNC(=S)NC1CCCCC1)c1ccccc1 [WZ1, 2-(Benzenesulfonyl)-N-Cyclohexylhydrazine-1-Carbothioamide]
[1]
  MBC/MIC: > 4
  MBC: > 2000 µg/mL
  MIC: 500 µg/mL (≈ 1.6 mM)
[2]
  MBC/MIC: > 4
  MBC: > 2000 µg/mL
  MIC: 500 µg/mL (≈ 1.6 mM)
[3]
  MBC/MIC: > 1
  MBC: > 2000 µg/mL
  MIC: > 2000 µg/mL
[4]
  MFC/MIC: > 1
  MFC: > 2000 µg/mL
  MIC: > 2000 µg/mL
[5]
  MFC/MIC: > 1
  MFC: > 2000 µg/mL
  MIC: > 2000 µg/mL
[6]
  MFC/MIC: > 1
  MFC: > 2000 µg/mL
  MIC: > 2000 µg/mL
[7]
  MFC/MIC: > 1
  MFC: > 2000 µg/mL
  MIC: > 2000 µg/mL
[8]
  MBC/MIC: > 1
  MBC: > 2000 µg/mL
  MIC: > 2000 µg/mL
[9]
  MBC/MIC: > 1
  MBC: > 2000 µg/mL
  MIC: > 2000 µg/mL
[10]
  MBC/MIC: > 1
  MBC: > 2000 µg/mL
  MIC: > 2000 µg/mL
[11]
  MBC/MIC: > 4
  MBC: > 2000 µg/mL
  MIC: 500 µg/mL (≈ 1.6 mM)
[12]
  MBC: > 2000 µg/mL
  MIC: 500 µg/mL (≈ 1.6 mM)
  MBC/MIC: > 4
[13]
  MBC: > 2000 µg/mL
  MIC: 500 µg/mL (≈ 1.6 mM)
  MBC/MIC: > 4
[14]
  MBC/MIC: > 8
  MBC: > 2000 µg/mL
  MIC: 250 µg/mL (≈ 0.798 mM)

## CCCCNC(=S)NNS(=O)(=O)c1ccccc1 [WZ2, 2-(Benzenesulfonyl)-N-Butylhydrazine-1-Carbothioamide]
[1]
  MBC/MIC: 2
  MBC: 2000 µg/mL (≈ 6.96 mM)
  MIC: 1000 µg/mL (≈ 3.48 mM)
[2]
  MBC/MIC: > 2
  MBC: > 2000 µg/mL
  MIC: 1000 µg/mL (≈ 3.48 mM)
[3]
  MBC/MIC: > 1
  MBC: > 2000 µg/mL
  MIC: > 2000 µg/mL
[4]
  MFC/MIC: > 1
  MFC: > 2000 µg/mL
  MIC: 2000 µg/mL (≈ 6.96 mM)
[5]
  MFC/MIC: > 1
  MFC: > 2000 µg/mL
  MIC: 2000 µg/mL (≈ 6.96 mM)
[6]
  MFC/MIC: > 1
  MFC: > 2000 µg/mL
  MIC: > 2000 µg/mL
[7]
  MFC/MIC: > 1
  MFC: > 2000 µg/mL
  MIC: 2000 µg/mL (≈ 6.96 mM)
[8]
  MBC/MIC: > 1
  MBC: > 2000 µg/mL
  MIC: > 2000 µg/mL
[9]
  MBC/MIC: > 1
  MBC: > 2000 µg/mL
  MIC: > 2000 µg/mL
[10]
  MBC/MIC: > 1
  MBC: > 2000 µg/mL
  MIC: > 2000 µg/mL
[11]
  MBC/MIC: > 2
  MBC: > 2000 µg/mL
  MIC: 1000 µg/mL (≈ 3.48 mM)
[12]
  MBC: > 2000 µg/mL
  MIC: 2000 µg/mL (≈ 6.96 mM)
  MBC/MIC: > 1
[12]; S. aureus ATCC 29213
  bioactivity class: no bioactivity (no bioactivity (MIC > 1000 µg/mL))
[13]
  MBC: > 2000 µg/mL
  MIC: 2000 µg/mL (≈ 6.96 mM)
  MBC/MIC: > 1
[13]; S. aureus ATCC 43300
  bioactivity class: no bioactivity (no bioactivity (MIC > 1000 µg/mL))
[14]
  MBC/MIC: > 2
  MBC: > 2000 µg/mL
  MIC: 1000 µg/mL (≈ 3.48 mM)
ALDH1A1; compound at IC25, 24 h
  ALDH1A1 concentration compared to control: increased
ALDH1A1; compound at IC25, 48 h
  ALDH1A1 concentration compared to control: decrease; also recorded: significantly reduced

## CCCCCCNC(=S)NNS(=O)(=O)c1ccccc1 [WZ3, 2-(Benzenesulfonyl)-N-Hexylhydrazine-1-Carbothioamide]
[1]
  MBC/MIC: 1
  MBC: 250 µg/mL (≈ 0.792 mM)
  MIC: 250 µg/mL (≈ 0.792 mM)
[2]
  MBC/MIC: 4
  MBC: 500 µg/mL (≈ 1.58 mM)
  MIC: 125 µg/mL (≈ 0.396 mM)
[3]
  MBC/MIC: > 4
  MBC: > 2000 µg/mL
  MIC: 500 µg/mL (≈ 1.58 mM)
[4]
  MFC/MIC: 2
  MFC: 1000 µg/mL (≈ 3.17 mM)
  MIC: 500 µg/mL (≈ 1.58 mM)
[5]
  MFC/MIC: 2
  MFC: 1000 µg/mL (≈ 3.17 mM)
  MIC: 500 µg/mL (≈ 1.58 mM)
[6]
  MFC/MIC: 1
  MFC: 2000 µg/mL (≈ 6.34 mM)
  MIC: 2000 µg/mL (≈ 6.34 mM)
[7]
  MFC/MIC: 1
  MFC: 2000 µg/mL (≈ 6.34 mM)
  MIC: 2000 µg/mL (≈ 6.34 mM)
[8]
  MBC/MIC: > 2
  MBC: > 2000 µg/mL
  MIC: 1000 µg/mL (≈ 3.17 mM)
[9]
  MBC/MIC: 1
  MBC: 1000 µg/mL (≈ 3.17 mM)
  MIC: 1000 µg/mL (≈ 3.17 mM)
[10]
  MBC/MIC: > 2
  MBC: > 2000 µg/mL
  MIC: 1000 µg/mL (≈ 3.17 mM)
[11]
  MBC/MIC: 4
  MBC: 1000 µg/mL (≈ 3.17 mM)
  MIC: 250 µg/mL (≈ 0.792 mM)
[12]
  MBC: 500 µg/mL (≈ 1.58 mM)
  MIC: 500 µg/mL (≈ 1.58 mM)
  MBC/MIC: 1
[13]
  MBC: 500 µg/mL (≈ 1.58 mM)
  MIC: 250 µg/mL (≈ 0.792 mM)
  MBC/MIC: 2
[14]
  MBC/MIC: 1
  MBC: 250 µg/mL (≈ 0.792 mM)
  MIC: 250 µg/mL (≈ 0.792 mM)
ALDH1A1; compound at IC25, 48 h
  ALDH1A1 concentration compared to control: decrease; also recorded: significantly reduced

Reference: paper PMC10747733, “N-Substituted 2-(Benzenosulfonyl)-1-Carbotioamide Derivatives Exert Antimicrobial and Cytotoxic Effects via Aldehyde Dehydrogenase Pathway: Synthesis, In Silico and In Vitro Studies” (Pharmaceuticals, 2023)
